From article PMC8667930, “Novel sulphonamide-bearing methoxyquinazolinone derivatives as anticancer and apoptosis inducers: synthesis, biological evaluation and in silico studies” (Journal of Enzyme Inhibition and Medicinal Chemistry, 2021)

Tests used:
[1] = system: A549 cells (non-small cell lung carcinoma); test: MTT cytotoxicity assay, A549; assay type: cell-based; settings: Homo sapiens, A549, 48 h treatment, mean ± SD (n = 3), NA = no activity
Method: (§1) The MTT assay was performed to test the antiproliferative activity of the synthesised compounds, as per the methodology described by Alqahtani and co-workers[35]. Briefly, A549, HepG2, LoVo, MCF-7 and HUVEC cell lines were seeded in 96-cell culture plates (5 × 10^4 per well) and allowed 24 h for adherence. The cells were then treated with different concentrations of each compound, and 5-fluorouracil was used as a positive control. Following the treatment period (48 h), 10 µL of MTT solution (5 mg/mL) was added to each well and the plates were incubated at 37 °C for 2–4 h. Isopropanol (100 µL) acidified with 0.1 N HCl was added to solubilise the formazan products and the plate was kept on a shaker for 10 min. The optical density of each mixture was measured at 570 nm using an enzyme-linked immunosorbent assay plate reader (ELISA plate reader, Bio-Tek, USA). The concentrations of tested compounds required to inhibit cell growth by 50% (IC50) were calculated using a dose-response curve. Cell survival was calculated using the following equation: Cell survival (%)=(OD of treated sample)/(OD of untreated sample)×100

[2] = system: HepG2 cells (liver cancer); test: MTT cytotoxicity assay, HepG2; assay type: cell-based; settings: Homo sapiens, HepG2, 48 h treatment, mean ± SD (n = 3), NA = no activity
Method: as §1

[3] = system: LoVo cells (colon cancer); test: MTT cytotoxicity assay, LoVo; assay type: cell-based; settings: Homo sapiens, LoVo, 48 h treatment, mean ± SD (n = 3), NA = no activity
Method: as §1

[4] = system: MCF-7 cells (human breast cancer cell line); test: MTT cytotoxicity assay, MCF-7; assay type: cell-based; settings: Homo sapiens, MCF7, 48 h treatment, mean ± SD (n = 3), NA = no activity
Method: as §1

[5] = system: HUVEC (normal human umbilical vein endothelial cells); test: MTT cytotoxicity assay, HUVEC; assay type: cell-based; settings: Homo sapiens, HUVEC, 48 h treatment, mean ± SD (n = 3), NA = no activity
Method: as §1

MCF-7 cells [6] = test: Cell cycle analysis by flow cytometry (propidium iodide); assay type: cell-based, human; settings: 24 h, average ± SD, control 0.75 ± 0.07%
Method: Cell cycle analysis was conducted as previously described by Alqahtani and co-workers[35]. Briefly, MCF-7 cells were seeded in 6-well plates and incubated for 24 h before the addition of various concentrations (10, 20 and 30 µM) of compounds 6 and 10. After incubating for 24 h, the cells were harvested, washed, and resuspended in PBS. The cells were fixed with 70% ethanol at 4 °C for 4 h. The cells were then incubated with RNase (100 µg/mL) and PI (50 µg/mL) for 30 min in the dark. Flow cytometry analysis was performed using Cytomics FC 500 (Beckman Coulter, Brea, CA, USA).

MCF-7 cells [7] = test: Annexin V-FITC/PI apoptosis assay by flow cytometry; assay type: cell-based, human; settings: 24 h, average ± SD, control 2.9 ± 0.84% (6) / 3.3 ± 0.28% (10)
Method: Apoptosis was measured using the Annexin V/PI detection kit (BioLegend, CA, USA), as per the manufacturer’s instructions. Briefly, MCF-7 cells were treated with different concentrations (10, 20 and 30 µM) of compounds 6 and 10 for 24 h. After treatment, the detached and adherent cells were collected, washed, and resuspended in 100 µL of 1X binding buffer. Then, 5 µL of Annexin V and 5 µL of PI were added to the resuspended cells. After incubating for 15 min in the dark, 400 µL of binding buffer was added to each tube and cell samples were analysed using Cytomics FC 500 (Beckman Coulter, Brea, CA, USA). Data collection and analysis were conducted using the CXP software V. 3.0 (Aspect, Phoenix, AZ, USA).

p53 [8] = test: RT-PCR, p53 mRNA expression in MCF-7 cells; assay type: cell-based, human; settings: MCF-7, 10, 20 and 30 µM, 24 h, compared to control, β-actin internal control
Method: (§2) MCF-7 cells were cultured with different concentrations (10, 20 and 30 µM) of compounds 6 and 10 for 24 h, and the untreated cells were used as a control. The cells were lysed using Trizol reagent (Invitrogen, USA). Total RNA was extracted as per the manufacturer’s instructions. Total RNA was quantitated by taking 2 µL of resuspended RNA on a Nano drop spectrophotometer (Thermo Scientific, USA) and reverse transcribing an equal amount (1 µg) of RNA to make complementary deoxyribonucleic acid (cDNA) using a Super Script VILO cDNA synthesis Kit (Invitrogen), as per the manufacturer’s protocol, in a final volume of 20 µL. The mixture was incubated at 42 °C for 1 h. The generated cDNA (2 µL) was used to assess the mRNA expression of apoptotic genes, including caspase-7, Bax, Bcl-2, and p53. The actin gene was used as an internal control. RT-PCR was performed using 5x Firepol Master Mix ready to load (Solis BioDyne, Tartu, Estonia), as per the manufacturer’s instructions. The program was run as follows: initial denaturation at 95 °C for 5 min, denaturation at 95 °C for 30 s, annealing at 55 °C for 45 s, elongation at 72 °C for 45 s (30 cycles), and final extension at 72 °C for 10 min. The RT-PCR products were electrophoresed on a 1.2% agarose gel containing ethidium bromide, and the gel was imaged on a Licor machine.

Bax [9] = test: RT-PCR, Bax mRNA expression in MCF-7 cells; assay type: cell-based, human; settings: MCF-7, 10, 20 and 30 µM, 24 h, compared to control, β-actin internal control
Method: as §2

caspase-7 [10] = test: RT-PCR, caspase-7 mRNA expression in MCF-7 cells; assay type: cell-based, human; settings: MCF-7, 10, 20 and 30 µM, 24 h, compared to control, β-actin internal control
Method: as §2

Bcl-2 [11] = test: RT-PCR, Bcl-2 mRNA expression in MCF-7 cells; assay type: cell-based, human; settings: MCF-7, 10, 20 and 30 µM, 24 h, compared to control, β-actin internal control
Method: as §2

p53 [12] = test: Western blot, p53 protein level in MCF-7 cells; assay type: cell-based, human; settings: MCF-7, 10, 20 and 30 μM, 24 h, β-actin internal control
Method: (§3) MCF-7 cells were treated with compounds 6 and 10 for 24 h. The cells were then harvested and washed twice with 1x PBS, by adding lysis buffer containing 20 mM Tris (pH 7.5), 150 mM NaCl, 1 mM sodium ethylenediaminetetraacetic acid, 1 mM ethylene glycol-bis (β-aminoethyl ether)-N,N,N′,N′-tetraacetic acid, 1% Triton X100, 1 µg/mL leupeptin, and 100 µM phenylmethylsulphonyl fluoride, to prepare the total cell extract. The lysate was cooled on ice for 1 h and clarified by centrifugation at 13000 rpm at 4 °C for 15 min. The supernatants were collected. The protein concentrations of all the samples were determined using Bradford reagent (BioRad, Hercules, CA, USA). For western blot analysis, 30 − 35 µg of the total protein was loaded onto 10% sodium dodecyl sulphate-polyacrylamide gel and then transferred to a polyvinylidene fluoride membrane. The membrane was blocked with 5% bovine serum albumin in 0.1% Tween-tris-buffered saline (TBST) buffer for 2 h at room temperature, and then washed thrice with TBST. The membrane was incubated with primary antibodies for Bcl-2, p53, caspase7, Bax, and β-actin (1:200, Santa Cruz Biotechnology). […] It was then ready for immunodetection; the membrane was incubated with enhanced chemiluminescence western blotting detection reagents (Amersham, Pharmacia Biotech Inc., Piscataway, NJ, USA) and bands were obtained on exposing to X-ray films (Amersham).

Bax [13] = test: Western blot, Bax protein level in MCF-7 cells; assay type: cell-based, human; settings: MCF-7, 10, 20 and 30 μM, 24 h, β-actin internal control
Method: as §3

caspase-7 [14] = test: Western blot, caspase-7 protein level in MCF-7 cells; assay type: cell-based, human; settings: MCF-7, 10, 20 and 30 μM, 24 h, β-actin internal control
Method: as §3

Bcl-2 [15] = test: Western blot, Bcl-2 protein level in MCF-7 cells; assay type: cell-based, human; settings: MCF-7, 10, 20 and 30 μM, 24 h, β-actin internal control
Method: as §3

Structure (SMILES) | IC50 [1] [µM] | IC50 [2] [µM] | IC50 [3] [µM] | IC50 [4] [µM] | IC50 [5] [µM] | proportion of sub-G1 phase cells (MCF-7 cells [6]; MCF-7, 10 µM) [%] | proportion of sub-G1 phase cells (MCF-7 cells [6]; MCF-7, 20 µM) [%] | proportion of sub-G1 phase cells (MCF-7 cells [6]; MCF-7, 30 µM) [%] | proportion of cells in early apoptosis (MCF-7 cells [7]; MCF-7, 10 µM) [%] | proportion of cells in early apoptosis (MCF-7 cells [7]; MCF-7, 20 µM) [%] | proportion of cells in early apoptosis (MCF-7 cells [7]; MCF-7, 30 µM) [%] | expression of p53 mRNA (p53 [8]) | expression of Bax mRNA (Bax [9]) | expression of caspase-7 mRNA (caspase-7 [10]) | expression of Bcl-2 mRNA (Bcl-2 [11]) | p53 protein level (p53 [12]) | Bax protein level (Bax [13]) | caspase-7 protein level (caspase-7 [14]) | Bcl-2 protein expression (Bcl-2 [15]) | melting point [°C]
COc1cccc2c(=O)n(-c3ccc(S(N)(=O)=O)cc3)c(SCC(=O)Nc3ccccc3C)nc12 [Compound 6, 2-((8-Methoxy-4-oxo-3-(4-sulphamoylphenyl)-3,4-dihydroquinazolin-2-yl)thio)-N-(o-tolyl) acetamide] | 51.5 ± 1.36 | 45.6 ± 0.71 | 22.6 ± 0.86 | 20.2 ± 0.6 | 88.27 ± 0.32 | 3.35 ± 0.07 | 7.8 ± 0.14 | 22.85 ± 1.2 | 7.6 ± 1.4 | 11.4 ± 1.97 | 18.35 ± 2.4 | increased | increased | increased | downregulated | markedly increased | markedly increased | markedly increased | down-regulated | > 350
CCc1cccc(NC(=O)CSc2nc3c(OC)cccc3c(=O)n2-c2ccc(S(N)(=O)=O)cc2)c1 [Compound 10, N-(3-Ethylphenyl)-2-((8-methoxy-4-oxo-3-(4-sulphamoylphenyl)-3,4-dihydroquinazolin-2-yl)thio) acetamide] | 48 ± 2.78 | 42.3 ± 1.59 | 22.3 ± 2.26 | 20.9 ± 0.4 | 32 ± 1.47 | 4.3 ± 0.28 |  | 30.6 ± 0.07 | 9.55 ± 0.2 |  | 16 ± 0.84 | increased | increased | increased | downregulated | markedly increased | markedly increased | markedly increased | down-regulated | 292 to 294
